ChEMBL document CHEMBL1201862, “PubChem BioAssay data set” (2004)
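Results reflect a 48-hour exposure of cells in 96-well plates to compound at five concentrations. GI50 marks 50% less growth.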 Calls of active or inactive are those of the source. Rule as the data show it: active = GI50 up to about 1.1 µM and inactive = higher.

Experiments:
Assay in all cases: NCI anticancer screen, dose series, 48 h
786-0 = tested on: 786-0
SNB-75 = tested on: SNB-75
SK-MEL-5 = tested on: SK-MEL-5
NCI-H460 = tested on: NCI-H460
HOP-92 = tested on: HOP-92
HT-29 = tested on: HT-29
SF-268 = tested on: SF-268
UO-31 = tested on: UO-31
HCT-116 = tested on: HCT-116
HCC 2998 = tested on: HCC 2998
KM12 = tested on: KM12
COLO 205 = tested on: COLO 205
HL-60 = tested on: HL-60
DU-145 = tested on: DU-145
A549 = tested on: A549
MDA-MB-231 = tested on: MDA-MB-231
Malme-3M = tested on: Malme-3M
RPMI-8226 = tested on: RPMI-8226

| SMILES | GI50 (786-0) | GI50 (SNB-75) | GI50 (SK-MEL-5) | GI50 (NCI-H460) | GI50 (HOP-92) | GI50 (HT-29) | GI50 (SF-268) | GI50 (UO-31) | GI50 (HCT-116) | GI50 (HCC 2998) | GI50 (KM12) | GI50 (COLO 205) | GI50 (HL-60) | GI50 (DU-145) | GI50 (A549) | GI50 (MDA-MB-231) | GI50 (Malme-3M) | GI50 (RPMI-8226) |
| --- | --- | --- | --- | --- | --- | --- | --- | --- | --- | --- | --- | --- | --- | --- | --- | --- | --- | --- |
| COc1ccc(-c2nc3c(C(=O)NCCN(C)C)cccc3c3ccccc23)cc1 | 2.49 µM (inactive) | 5.13 µM (inactive) | 1.74 µM (inactive) | 2.45 µM (inactive) | 3.51 µM (inactive) | 2.51 µM (inactive) | 8.53 µM (inactive) | 1.16 µM (inactive) | 3.46 µM (inactive) | 1.95 µM (inactive) | 3.58 µM (inactive) | 1.99 µM (inactive) | 2.07 µM (inactive) | 4.65 µM (inactive) | 3.1 µM (inactive) | 3.45 µM (inactive) | 4.3 µM (inactive) |  |
| COc1nc2ccc(Cl)c(C(O)c3ccccc3)c2nc1OC (stereo not drawn) |  | 33 µM (inactive) | 15.6 µM (inactive) | 25.8 µM (inactive) | 12.9 µM (inactive) | 29.9 µM (inactive) | 23.4 µM (inactive) | 22.1 µM (inactive) | 16.2 µM (inactive) |  | 29.9 µM (inactive) | 18.1 µM (inactive) | 19.2 µM (inactive) | 32.3 µM (inactive) | 23.8 µM (inactive) | 15.4 µM (inactive) | 32.9 µM (inactive) | 14.1 µM (inactive) |
| CSc1cc(Br)ccc1-n1c(C(=O)c2ccccc2)c(SC)n(-c2ccccc2)c1=O | > 100 µM (inactive) | > 100 µM (inactive) | 67.8 µM (inactive) | 50.9 µM (inactive) | > 100 µM (inactive) | 52.8 µM (inactive) | > 100 µM (inactive) | 67 µM (inactive) | 49.3 µM (inactive) | 86.9 µM (inactive) | > 100 µM (inactive) | 47.2 µM (inactive) |  |  | > 100 µM (inactive) | 39.8 µM (inactive) |  |  |
| COc1ccc(C2=Nc3c(nc(SC)[nH]c3=O)NC(c3ccccc3)C2)cc1 (stereo not drawn) | 26.3 µM (inactive) | 17.8 µM (inactive) | 16.6 µM (inactive) |  | 46.3 µM (inactive) | 21.8 µM (inactive) |  | 20.8 µM (inactive) | 30.9 µM (inactive) |  | 16.6 µM (inactive) | 19.6 µM (inactive) | 18.1 µM (inactive) | 25.2 µM (inactive) | 24 µM (inactive) | 14.3 µM (inactive) | 37.1 µM (inactive) | 27.2 µM (inactive) |
| COC(=O)C1(N2CCOCC2)CCC([C@@H](c2ccccc2)C(C)[N+](=O)[O-])C1 (stereo partly drawn) | 75.9 µM (inactive) | 34.5 µM (inactive) | > 100 µM (inactive) | > 100 µM (inactive) |  | > 100 µM (inactive) | > 100 µM (inactive) | > 100 µM (inactive) |  | > 100 µM (inactive) | > 100 µM (inactive) | 64.6 µM (inactive) | 85.3 µM (inactive) | 19.7 µM (inactive) | > 100 µM (inactive) | > 100 µM (inactive) | > 100 µM (inactive) | 13 µM (inactive) |
| O=C1CC(CC(O)C(O)CO)CC(=O)N1 (stereo not drawn) | > 100 µM (inactive) |  | > 100 µM (inactive) | > 100 µM (inactive) | > 100 µM (inactive) | > 100 µM (inactive) | > 100 µM (inactive) | > 100 µM (inactive) | > 100 µM (inactive) | > 100 µM (inactive) | > 100 µM (inactive) |  | > 100 µM (inactive) | > 100 µM (inactive) | > 100 µM (inactive) | > 100 µM (inactive) | > 100 µM (inactive) | > 100 µM (inactive) |
| c1ccc(P(CCP(c2ccccn2)c2ccccn2)c2ccccc2)cc1 | 11.9 µM (inactive) | 0.863 µM (active) | 21.5 µM (inactive) | 0.196 µM (active) | 3.01 µM (inactive) | 0.0247 µM (active) |  | 33.3 µM (inactive) | 0.0192 µM (active) | 3.37 µM (inactive) | 0.286 µM (active) | 0.341 µM (active) | 0.0398 µM (active) | 1.19 µM (inactive) | 0.0736 µM (active) |  | 25.2 µM (inactive) | 0.0409 µM (active) |
| S=C1NC(c2ccccc2)NC(c2ccccc2)S1 (stereo not drawn) | > 100 µM (inactive) | > 100 µM (inactive) | > 100 µM (inactive) | 21.4 µM (inactive) | > 100 µM (inactive) | 14.1 µM (inactive) | > 100 µM (inactive) | > 100 µM (inactive) | > 100 µM (inactive) |  | > 100 µM (inactive) | > 100 µM (inactive) | > 100 µM (inactive) | > 100 µM (inactive) | > 100 µM (inactive) | > 100 µM (inactive) | > 100 µM (inactive) | > 100 µM (inactive) |
| COCCOC(=O)C(C)=[N+]=[N-] | > 100 µM (inactive) | > 100 µM (inactive) | > 100 µM (inactive) | > 100 µM (inactive) |  | > 100 µM (inactive) | > 100 µM (inactive) | > 100 µM (inactive) | > 100 µM (inactive) | > 100 µM (inactive) | > 100 µM (inactive) | > 100 µM (inactive) |  | > 100 µM (inactive) |  | > 100 µM (inactive) | > 100 µM (inactive) | > 100 µM (inactive) |
| COc1ccc(/C=C2\CCC(C)C3C2=NN(c2ccccc2)C3c2ccc(OC)c(OC)c2)cc1OC (stereo not drawn) | 3.48 µM (inactive) | 1.18 µM (inactive) | 3.61 µM (inactive) |  |  | 3.54 µM (inactive) | 3.89 µM (inactive) | 6.12 µM (inactive) | 2.07 µM (inactive) |  | 2.46 µM (inactive) | 4.22 µM (inactive) | 1.54 µM (inactive) | 3.01 µM (inactive) |  | 4.19 µM (inactive) | 3.08 µM (inactive) | 1.23 µM (inactive) |
| CCOC(=O)C(C(=O)OCC)=C1NC2(c3ccccc3Nc3ccccc32)C(C#N)S1 (stereo not drawn) | 10.4 µM (inactive) | 16.2 µM (inactive) | 10 µM (inactive) | 3.79 µM (inactive) | 4.34 µM (inactive) | 4.21 µM (inactive) | 13.5 µM (inactive) | 12.7 µM (inactive) | 9.89 µM (inactive) | 4.42 µM (inactive) | 4.37 µM (inactive) | 6.75 µM (inactive) | 21.9 µM (inactive) | 12 µM (inactive) | 4.39 µM (inactive) |  | 15.3 µM (inactive) | 3.01 µM (inactive) |
| C1=C\SS/C=C\SS/1 | 17 µM (inactive) |  | 24.5 µM (inactive) | 23.9 µM (inactive) | 24.3 µM (inactive) | 15.6 µM (inactive) | 40.5 µM (inactive) | 22.2 µM (inactive) | 34.4 µM (inactive) | 53.3 µM (inactive) | 36 µM (inactive) | 39.3 µM (inactive) | 7.57 µM (inactive) | > 100 µM (inactive) | 48.1 µM (inactive) | 6.53 µM (inactive) |  | 28.9 µM (inactive) |
| C=CCCC1(C)CCCNC1=S (stereo not drawn) |  | > 100 µM (inactive) | > 100 µM (inactive) | > 100 µM (inactive) | > 100 µM (inactive) | > 100 µM (inactive) |  | > 100 µM (inactive) | > 100 µM (inactive) | > 100 µM (inactive) | > 100 µM (inactive) | 37.7 µM (inactive) | > 100 µM (inactive) |  | > 100 µM (inactive) |  | > 100 µM (inactive) | > 100 µM (inactive) |
| O=C1NNC2NC(=O)C3(NN2C1=O)c1ccccc1-c1ccccc13 (stereo not drawn) | > 100 µM (inactive) | > 100 µM (inactive) | > 100 µM (inactive) | > 100 µM (inactive) | > 100 µM (inactive) | > 100 µM (inactive) | > 100 µM (inactive) | > 100 µM (inactive) | > 100 µM (inactive) | > 100 µM (inactive) |  | > 100 µM (inactive) | > 100 µM (inactive) | > 100 µM (inactive) | > 100 µM (inactive) | > 100 µM (inactive) | > 100 µM (inactive) |  |
| COc1ccc(/C=N/c2ccc(-c3nc4ccccc4[nH]3)cc2)cc1OC | > 100 µM (inactive) | 22.3 µM (inactive) | > 100 µM (inactive) | > 100 µM (inactive) | 47 µM (inactive) | > 100 µM (inactive) | 80 µM (inactive) | > 100 µM (inactive) | > 100 µM (inactive) |  | > 100 µM (inactive) | > 100 µM (inactive) | 63.7 µM (inactive) | > 100 µM (inactive) | > 100 µM (inactive) | 68.4 µM (inactive) | > 100 µM (inactive) | > 100 µM (inactive) |
| Cn1c2c(c3ccccc31)CCN1C(=O)C34CCCC3CC21S4 (stereo not drawn) | > 100 µM (inactive) |  | 76.2 µM (inactive) |  | > 100 µM (inactive) | > 100 µM (inactive) | > 100 µM (inactive) | > 100 µM (inactive) | > 100 µM (inactive) |  | > 100 µM (inactive) | > 100 µM (inactive) | > 100 µM (inactive) | > 100 µM (inactive) | > 100 µM (inactive) | > 100 µM (inactive) | > 100 µM (inactive) | > 100 µM (inactive) |
| Nc1nc(=O)n(C2OC(CO)C(O)C2O)cc1F (stereo not drawn) |  |  |  | 0.102 µM (active) | 0.0755 µM (active) | 5.65 µM (inactive) | 2.75 µM (inactive) | 10.3 µM (inactive) | 0.495 µM (active) | > 100 µM (inactive) | > 100 µM (inactive) | 79.4 µM (inactive) | 0.293 µM (active) |  | 0.255 µM (active) |  |  | > 100 µM (inactive) |
| COc1ccc(-c2oc3cc(O)cc(O)c3c(=O)c2OC)cc1 [ERMANIN] |  |  | 16.7 µM (inactive) | 25.4 µM (inactive) | 3.23 µM (inactive) | 24.7 µM (inactive) | 22.1 µM (inactive) | 21.6 µM (inactive) | 39.9 µM (inactive) | 26 µM (inactive) |  | 20.7 µM (inactive) | 14.1 µM (inactive) | 27.2 µM (inactive) | 34.9 µM (inactive) | 31.8 µM (inactive) | 38.8 µM (inactive) | 15 µM (inactive) |
